≈ marks a conversion by molar mass, not a printed value.
Assays:
[1] = test system: Mycobacterium tuberculosis; assay: Antitubercular activity against Mycobacterium tuberculosis H37Rv assessed as bacterial growth inhibition incubated for 28 days by agar dilution method; format: functional; conditions: 672 h, time 28 day
Vero = assay: Cytotoxicity against African green monkey Vero cells assessed as reduction in cell viability measured after 72 hrs by MTT assay; format: cell-based; conditions: Chlorocebus sabaeus
Albumin [2] = target: T1, Albumin (Homo sapiens, UniProt P02768); assay: Binding affinity to human serum albumin assessed as quenching of intrinsic fluorescence at 2.5 to 15 uM and 298 K by fluorescence spectroscopy; format: ADME; conditions: isolated protein, dose 2.5-15 µM
T1 sequence (P02768 whole entry): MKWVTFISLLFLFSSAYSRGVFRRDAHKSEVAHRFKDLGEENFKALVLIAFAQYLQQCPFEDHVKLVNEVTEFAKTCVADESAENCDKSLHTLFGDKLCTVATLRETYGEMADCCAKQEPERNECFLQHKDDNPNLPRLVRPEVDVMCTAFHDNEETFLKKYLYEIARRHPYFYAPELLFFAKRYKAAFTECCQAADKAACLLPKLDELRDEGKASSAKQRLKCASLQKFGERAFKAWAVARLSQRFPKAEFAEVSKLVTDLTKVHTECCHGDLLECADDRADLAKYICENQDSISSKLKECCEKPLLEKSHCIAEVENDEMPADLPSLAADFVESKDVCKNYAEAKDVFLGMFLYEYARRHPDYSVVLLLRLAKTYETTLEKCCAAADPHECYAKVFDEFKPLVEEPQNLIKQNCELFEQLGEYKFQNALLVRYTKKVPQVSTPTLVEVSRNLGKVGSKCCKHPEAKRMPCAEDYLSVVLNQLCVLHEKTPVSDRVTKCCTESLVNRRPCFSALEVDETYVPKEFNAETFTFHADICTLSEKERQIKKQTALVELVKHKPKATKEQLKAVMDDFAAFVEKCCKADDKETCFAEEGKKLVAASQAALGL

Albumin [3] = target: T1, Albumin; assay: Binding affinity to human serum albumin assessed as binding constant; format: ADME; conditions: isolated protein
Albumin [4] = target: T1, Albumin; assay: Binding affinity to human serum albumin assessed as distance between the acceptor and donor by FRET assay; format: ADME; conditions: isolated protein
Albumin [5] = target: T1, Albumin; assay: Binding affinity to human serum albumin assessed as critical distance with 50% energy transfer between protein and compound by FRET assay; format: ADME; conditions: isolated protein
Albumin [6] = target: T1, Albumin; assay: Binding affinity to human serum albumin assessed as quenching constant; format: ADME; conditions: isolated protein
Albumin [7] = target: T1, Albumin; assay: Binding affinity to human serum albumin assessed as Stem-Volmer quenching constant; format: ADME; conditions: isolated protein
Albumin [8] = target: T1, Albumin; assay: Binding affinity to human serum albumin at protein to compound molar ratio of 1:1 by fluorescence spectroscopy; format: ADME; conditions: isolated protein

SMILES | MIC [1] | IC50 (Vero) | Activity (Albumin [2]) | Kb (Albumin [3]) | Activity (Albumin [4]) | Activity (Albumin [5]) | Kq (Albumin [6]) | KSV (Albumin [7]) | Activity (Albumin [8])
O=C(NCc1cn(-c2ccc(O)cc2)nn1)c1c[nH]c(-c2ccccc2)n1 | 5.19 µM (≈ 1.87 µg/mL) | 281 µM |  |  |  |  |  |  | 
NNC(=O)c1ccncc1 [ISONIAZID] | 0.36 µM (≈ 0.0494 µg/mL) | > 456 µM |  |  |  |  |  |  | 
Cc1ccc(-n2cc(CNC(=O)c3c[nH]c(-c4ccccc4)n3)nn2)cc1 | 19.5 µM (≈ 6.97 µg/mL) | 409 µM |  |  |  |  |  |  | 
NC(=O)c1ccc(-n2cc(CNC(=O)c3c[nH]c(-c4ccccc4)n3)nn2)cc1 | 1.47 µM (≈ 0.569 µg/mL) | 198 µM | Active | 2.58 10^3L/mol | 2.09 nm | 1.49 nm | 8.36 10^12L/mol/s | 5.02 10^4L/mol | Active
Nc1ccc(-n2cc(CNC(=O)c3c[nH]c(-c4ccccc4)n3)nn2)cc1 | 2.03 µM (≈ 0.73 µg/mL) | 237 µM | Active | 2.16 10^3L/mol | 2.36 nm | 1.81 nm | 8.11 10^12L/mol/s | 4.38 10^4L/mol | Active
COc1ccc(-n2cc(CNC(=O)c3c[nH]c(-c4ccccc4)n3)nn2)cc1 | 10.6 µM (≈ 3.98 µg/mL) | 388 µM |  |  |  |  |  |  | 
